Data taken from patent publication US20060106207A1, “Nucleotide sequences that encode deregulated phosphoglycerate dehydrogenases of coryneform bacteria and method for producing l-serine” (Forschungszentrum Julich GMBH, priority 2002, published 2006).

Tests used:
Format in all cases: biochemical, Corynebacterium glutamicum
[1] = system: C-terminal foreshortened 3-phosphoglycerate-dehydrogenase mutant (serAΔ197) in strain 13032pZ1serAΔ197; assay: Inhibition of the overexpressed 3-phosphoglycerate-dehydrogenase by L-serine in strain 13032pZ1serAΔ197
Protocol: (§1) The cells were harvested in the exponential growth phase at OD600 of 5 to 8 and washed twice in 100 mM Tris-HCl, pH 7.5. The cell pellets were then frozen at −20° C. until disintegration. The frozen cell pellets were moisturized on ice and resuspended with 2 ml cold Tris-HCl pH 7.5/10% glycerine in a Brenson sonifier for 10 minutes. Then the cell fragments were separated by centrifugation at 13000 rpm and 4° C. in a Sigma -202 MK centrifuge. The thus obtained supernatant is desalted as a raw extract initially on a PD-10 column using the conditions set by the manufacturer (Amersham Pharmacia Biotech) and then immediately subjected to enzyme measurement. The enzyme test relied upon the photometric detection of the formation of NADH in the reaction of 3-phosphoglycerate and NAD to NADH.
(§2) In the following tests were made whether the C-terminus foreshortened mutant serAΔ197 was no longer blocked by L-serine. For that purpose initially the inhibition of the 3-phosphoglycerate-dehydrogenase of the wild type was investigated in cell-free extracts of C. glutamicum by L-serine based upon the above described enzyme tests. For that purpose to the test bath were added 1, 5 and 10 mM L-serine and were incubated for 5 minutes at 30° C. The reaction was then started by the addition of 15 mM […]. […]

[2] = system: overexpressed 3-phosphoglycerate-dehydrogenase in strain 13032pZ1serA; assay: Inhibition of the overexpressed 3-phosphoglycerate-dehydrogenase by L-serine in strain 13032pZ1serA; conditions: 10 mM L-serine, 5 minutes of incubation at 30° C.
Protocol: as §1, §2

[3] = system: Wild Type 3-Phosphoglycerate-Dehydrogenase of C. glutamicum; assay: Inhibition of wild type 3-phosphoglycerate-dehydrogenase by L-serine in cell-free extracts
Protocol: as §1
In the following tests were made whether the C-terminus foreshortened mutant serAΔ197 was no longer blocked by L-serine. For that purpose initially the inhibition of the 3-phosphoglycerate-dehydrogenase of the wild type was investigated in cell-free extracts of C. glutamicum by L-serine based upon the above described enzyme tests. For that purpose to the test bath were added 1, 5 and 10 mM L-serine and were incubated for 5 minutes at 30° C. The reaction was then started by the addition of 15 mM […]. The incubation was necessary in order to be able to detect an inhibition (Table 4). This time dependency of the L-serine inhibition which required several minutes of incubation before a constant level of inhibition was reached has also been described for other 3-phosphoglycerate-dehydrogenase, for example for the purified enzyme of B. subtilis (Saski R. and Pitzer L., 1975, Eur. J. Biochem., 51:415-427).

[4] = system: 3-phosphoglycerate-dehydrogenase; assay: 3-phosphoglycerate-dehydrogenase enzyme test of strains overexpressing serA or shortened serA alleles
Protocol: The plasmids pziserA, pZiserAΔ79, pZiserAΔ188), pZiserAΔ197, pZiserAΔ205 and pZiserAΔ211 were introduced by electroporation individually into C. glutamicum. As a control, the media plasmid pZ1 was also electroporated into C. glutamicum ATCC 13032. The thus obtained strains 13032pZ1, 13032pZ1serA, 13032pZiserAΔ79, 13032pZiserAΔ188, 13032pZiserAΔ197, 13032pZiserAΔ205 and 13032pZiserAΔ211 were analyzed for overexpression of the 3-phosphoglycerate-dehydrogenase by means of is the 3-phosphoglycerate-dehydrogenase enzyme test. For this purpose the […] strains were activated in complex medium (CgIII=2.5 g NaCl, 10 g bacto-peptone, 10 g bacto-yeast extract, pH 7.4 with 2% glucose) and the minimal medium CGXII and each was separately seeded from the preculture. The medium was identical with the medium CGXII described by Keilhauer et al (Journal of Bacteriology (1993) 175: 5593-5603) but containing additionally 25 μg/mL of kanamycin.
The cells were harvested in the exponential growth phase at OD600 of 5 to 8 and washed twice in 100 mM Tris-HCl, pH 7.5. The cell pellets were then frozen at −20° C. until disintegration. […]
With these test results a specific activity of about 150 mU/mg protein can be determined for the wild-type 3-phosphoglycerate-dehydrogenase activity. […]

Row | Molecule | L-serine inhibition of the foreshortened mutant (in words) [1] | Relative 3-Phosphoglycerate-Dehydrogenase Activity ([1]; 10 mM L-serine, 5 minutes of incubation at 30° C.) [%] | Relative 3-Phosphoglycerate-Dehydrogenase Activity [2] [%] | Relative 3-Phosphoglycerate-Dehydrogenase Activity ([3]; 1 mM L-serine, 5 minute incubation at 30° C.) [%] | Relative 3-Phosphoglycerate-Dehydrogenase Activity ([3]; 1 mM L-serine, without incubation) [%] | Relative 3-Phosphoglycerate-Dehydrogenase Activity ([3]; 5 mM L-serine, 5 minute incubation at 30° C.) [%] | Relative 3-Phosphoglycerate-Dehydrogenase Activity ([3]; 5 mM L-serine, without incubation) [%] | Relative 3-Phosphoglycerate-Dehydrogenase Activity ([3]; 10 mM L-serine, 5 minute incubation at 30° C.) [%] | Relative 3-Phosphoglycerate-Dehydrogenase Activity ([3]; 10 mM L-serine, without incubation) [%] | share of the wild type activity ([4]; compared with overexpressed wild type) | overexpression / increase in specific 3-phosphoglycerate-dehydrogenase activity ([4]; with respect to the wild type protein) [fold]
1 | N[C@@H](CO)C(=O)O [L-Serine, L-serine] | no longer was significantly limited | 95 | 34 | 96 | 106 | 82 | 112 | 56 | 104 |  | 
2 | serAΔ197: serA allele coding for PGD with deletion of 197 C-terminal amino acids, SEQ ID No. 1 / 7 (protein, listed as Corynebacterium glutamicum) MSQNGRPVVLIADKLAQSTVDALGDAVEVRWVDGPNRPELLDAVKEADALLVRSATTVDAEVIAAAPNLKIVGRAGVGLDNVDIPAATEAGVMVANAPTSNIHSACEHAISLLLSTARQIPAADATLREGEWKRSSFNGVEIFGKTVGIVGFGHIGQLFAQRLAAFETTIVAYDPYANPARAAQLNVELVELDELMSRSDFVTIHLPKTKETAGMFDAQLLAKSKKGQIIINAARGGLVDEQALADAIESGHIRGAGFDVYSTEPCTDSPLFKLPQVVVTPHLGASTEEAQDRAGTDVADSVLKALAGEFVADAVNVSGGRVGEEVAVWMDLA |  |  |  |  |  |  |  |  |  | more than 60% | 10
